Measured values from patent US20150297573A1, “TPL2 KINASE INHIBITORS FOR PREVENTING OR TREATING DIABETES AND FOR PROMOTING Beta-CELL SURVIVAL” (INSERM (Institut National De La Santé Et De La Recherche …, priority 2012, published 2015).
Like-named read-outs stand apart in the source and are kept apart here.

How the values were obtained:
[1] = tested on: isolated mouse islets; details: Tpl2 inhibitor 3 μM, cytokine mix 24 h
Method: D: Isolated mouse islets were stimulated or not with a cytokine mix (IL-1β (1000 U/ml), TNF-α (1000 U/ml) and IFN-γ (1000 U/ml)) in RPMI medium for 24 h. The caspase-3/7 activity was measured using the “Caspase-Glo® 3/7 Assay”.
Pancreatic islets were isolated from male 10- to 12-weeks-old C57BL/6 mice following the injection of approximately 2 ml of 1 mg/ml collagenase XI through the bile duct. The pancreases were then removed, incubated under agitation at 37° C. for 9 minutes to complete the digestion and the islets were separated from the exocrine pancreatic tissue using a Histopaque-1077 gradient. The islets were then washed in cold PBS supplemented with 1.2 mM CaCl2, 1 mM MgCl2, and 5.6 mM glucose, handpicked under microscope, separated in groups composed of 200-300 islets and maintained in culture at 37° C. (95% air and 5% CO2) in RPMI 1640 containing 11.1 mM glucose and supplemented with 10% FCS, 2 mM glutamine, 100 units/ml penicillin and 100 μg/ml streptomycin for at least 24 h before being used.

[2] = tested on: p38; assay: p38 phosphorylation in INS-1E β-cells (Western blotting); assay type: cell-based, rat; details: INS-1E cells
Method: (§1) Quantification of three to five experiments is shown.
Tpl2 expression was specifically silenced in INS-1E cells using a validated set of 4 different 19-nucleotides siRNA duplexes (“ON-TARGETplus SMARTpool”, L-091828-01-0005) purchased from Dharmacon (ABgene Ltd, part of Thermo Fisher Scientific, Waltham, Mass.). […] Briefly, groups of 500,000 INS-1E cells were maintained in culture in the absence of penicillin and streptomycin for 24 h before being transfected with 40 nM siRNA-Lipofectamine™ 2000 complexes prepared in Opti-MEM medium at a 2:1 ratio. Medium was replaced 6 h after transfection with fresh antibiotic-free RPMI medium supplemented with 7.5% heat-inactivated FCS. A second transfection was performed 24 h after the first one to improve the transfection efficiency. The transfection efficiency was assessed using the “siGLO Green Transfection Indicator”. All assays were performed at least 50 h after the first transfection.
Proteins were visualized by enhanced chemiluminescence detection.

[3] = tested on: INS-1E cells; assay: Apoptosis of INS-1E cells (cleaved caspase-3 and cleaved PARP, Western blotting)
Method: FIG. 5: Apoptotic effects of inflammatory cytokines in INS-1E cells and in mouse pancreatic islets under Tpl2 inhibition. A and C: INS-1E β-cells were treated in RPMI medium containing BSA 0.5% (A) or 7.5% SVF (C) with or without Tpl2 inhibitor (3 μM) during 2 h and then stimulated or not with Tpl2 inhibitor (3 μM) and IL-1β alone (20 ng/ml) for 48 h (A) or the cytokine mixture (IL-1β (0.2 μg/ml), TNFα (50 ng/ml), and IFNγ (30 ng/ml) for 24 h (C). Lysates were subjected to Western blotting with antibodies against cleaved caspase-3 (1:1000), total and cleaved PARP (1:1000) or β-actin (1:5000). Quantification of four to ten independent experiments is shown. Data are expressed as ratio of cleaved caspase-3 or cleaved PARP on β-actin protein amounts, and as fold of these proteins over basal in cells without treatment. Data are presented as the means±SEM. *P<0.05, **P<0.01, and ***P<0.001 vs stimulus effect in control cells. B: INS-1E β-cells were stimulated or not in RPMI medium containing SVF 7.5% with each cytokine alone or a mixture of the three (IL-1β (0.2 ng/ml), TNFα (50 ng/ml), or IFNγ(30 ng/ml) for 24 h. Lysates were subjected to Western blotting with antibodies against cleaved caspase-3 (1:1000) or β-actin (1:5000). Dotted line represents 100% of caspase-3 amount from untreated control cells. Quantification of four independent experiments is shown. Data are expressed as a percentage of cleaved caspase-3 protein amount in untreated cells (caspase-3/β-actin protein amount ratio). Data are presented as the means±SEM. *P<0.05, **P<0.01, and ***P<0.001 vs untreated control cells.

[4] = tested on: INS-1E cells; details: Tpl2 inhibitor 5 μM, 24 h in conditioned medium of LPS-activated RAW264.7
Method: RAW264.7 macrophages were maintained in DMEM containing 5% (vol/vol) heat-inactivated fetal bovine serum and antibiotics at 37° C. and 5% CO2/95% air atmosphere. RAW264.7 macrophages were incubated for 24 h with LPS (Lipopolysaccharide) (0.5 ng/ml), and the resulting conditioned medium was transferred onto INS-1E cells treated with or without Tpl2 inhibitor (5 μM). Lysates were subjected to Western blotting with antibodies against cleaved caspase-3 (1:1000), or HSP90 (1:1000). […] Data are expressed as ratio of cleaved caspase-3 on HSP90 protein amount, and as fold of cleaved caspase-3 over basal in cells in control culture medium without Tpl2 inhibitor treatment.

[5] = tested on: ERK1/2; details: human islets; Tpl2 inhibitor 3 μM 2 h; cytokine mix 20 min
Method: Human islets were isolated, cultured 24-72 h for recovery in CMRL medium containing 10% SVF, treated with KRBH buffer with or without Tpl2 inhibitor (3 μM) during 2 h and then stimulated or not with a cytokine mix (IL-1β (100 U/ml), TNF-α (500 U/ml), and IFNγ(100 U/ml)) for 20 min. Lysates were subjected to western blot analysis with antibodies against phosphorylated ERK1/2 (1:1000) or β-actin (1:2000). […] Data are expressed as ratio of phosphorylated ERK2 on β-actin amount and as a fold increase over basal in islets without treatment. Data are expressed as the means±SEM. *P<0.05, vs stimulus effect in control cells.
Human pancreases were harvested from five brain-dead non-obese non-diabetic donors in agreement with the French Agence de la Biomedecine and the local Institutional Ethical Committee. […]
Human islets were isolated, cultured 24-72 h for recovery in CMRL medium containing 10% SVF, treated with KRBH buffer with or without Tpl2 inhibitor (3 μM) during 2 h and then stimulated or not with a cytokine mix (IL-1β (100 U/ml), TNF-α (500 U/ml), and IFNγ (100 U/ml)) for 20 min. […] Data are expressed as ratio of phosphorylated ERK2 on b-actin amount and as a fold increase over basal in islets without treatment. Data are expressed as the means±SEM. *P<0.05, vs stimulus effect in control cells.

[6] = tested on: p90RSK; details: islets from C57BL/6 mice; Tpl2 inhibitor 3 μM; cytokine mix 20 min
Method: (§2) 2D and 3B: 72 h after the first 40 nM siRNA transfection, INS-1E cells were treated or not, as described above. Phosphorylation and total protein amount were analyzed by Western blotting as described above. […] Data are expressed as ratio of phosphorylated on total protein amount and as fold of phosphorylation over basal in cells without treatment.

[7] = tested on: p46/p54 c-Jun N-terminal kinases (JNK); details: INS-1E cells
Method: as §2

[8] = tested on: ERK1/2; details: islets from C57BL/6 mice; Tpl2 inhibitor 3 μM; cytokine mix 20 min
Method: as §2

[9] = tested on: p90RSK; assay: p90RSK phosphorylation in INS-1E β-cells (Western blotting); assay type: cell-based, rat; details: INS-1E cells, Tpl2 inhibitor 3 μM
Method: as §1
(§3) The rat β-cell line INS-1E was provided by Dr. Maechler (Department of Cell Physiology and Metabolism, Faculty of Medicine, University of Geneva, Geneva, Switzerland). Cells (passages 60-95) were maintained in culture as monolayer at 37° C. in humidified atmosphere with 5% CO2, using RPMI 1640 medium containing 11.1 mM glucose, and supplemented with 7.5% heat-inactivated FCS, 1 mM sodium pyruvate, 10 mM HEPES, 2 mM glutamine, 50 μM β-mercaptoethanol, 100 U/ml penicillin, and 100 μg/ml streptomycin. Experiments were performed in INS-1E cells at ˜70% confluence in 6-well plates.
(§4) Tpl2 expression was specifically silenced in INS-1E cells using a validated set of 4 different 19-nucleotides siRNA duplexes (“ON-TARGETplus SMARTpool”, L-091828-01-0005) purchased from Dharmacon (ABgene Ltd, part of Thermo Fisher Scientific, Waltham, Mass.). […] Briefly, groups of 500,000 INS-1E cells were maintained in culture in the absence of penicillin and streptomycin for 24 h before being transfected with 40 nM siRNA-Lipofectamine™ 2000 complexes prepared in Opti-MEM medium at a 2:1 ratio. Medium was replaced 6 h after transfection with fresh antibiotic-free RPMI medium supplemented with 7.5% heat-inactivated FCS. […] The transfection efficiency was assessed using the “siGLO Green Transfection Indicator”. […]

[10] = tested on: db/db mice
Method: FIG. 8: Effect of in vivo inhibition of Tpl2 on initial and body weights. Five-week-old db/db mice were obtained from Janvier Ltd and fed with a standard diet (4% fat) all over the study. All mice had free access to food and fresh water and were kept on a 12 h-day/12 h-night cycle. Body weights were recorded until the day of sacrifice prior to intraperitoneal (ip) administration of glucose, insulin or the daily injection of 2.5 mg/kg Tpl2 inhibitor or of the corresponding vehicle.
FIG. 9: Effect of in vivo inhibition of Tpl2 on fasting glucose and plasma insulin levels. Five-week-old db/db mice were obtained from Janvier Ltd and fed with a standard diet (4% fat) all over the study. All mice had free access to food and fresh water and were kept on a 12 h-day/12 h-night cycle. Fast and blood glucose concentrations were determined with a (Verio Onetouch, Lifescan, Johnson and Johnson Company) glucometer using blood sampled from the tail vein on mice receiving daily injection of 2.5 mg/kg Tpl2 inhibitor or of the corresponding vehicle. Serum insulin levels were quantified by radioimmunoassay (RIA rat insulin kit, Millipore) using blood sampled from the tail vein on the first day of the study or jugular arteries the day of the sacrifice.
(§5) FIG. 10: Effect of in vivo inhibition of Tpl2 on glucose tolerance and insulin tolerance. Five-week-old db/db mice were obtained from Janvier Ltd and fed with a standard diet (4% fat) all over the study. All mice had free access to food and fresh water and were kept on a 12 h-day/12 h-night cycle. Mice received daily injection of 2.5 mg/kg Tpl2 inhibitor or of the corresponding vehicle. Glucose tolerance tests were performed by ip administration of 1-2 g/kg glucose after a 16 h overnight fast and blood glucose concentrations were determined with a (Verio Onetouch, Lifescan, Johnson and Johnson Company) glucometer using blood sampled from the tail vein. Insulin tolerance tests were carried out in a similar manner following the ip administration of 0.75 U insulin per kg body weight to non-fasted mice.
as §5, with “Five-week-old” for “FIG. 10: Effect of in vivo inhibition of Tpl2 on glucose tolerance and insulin tolerance. Five-week-old”, “Body weights were recorded until the day of sacrifice prior to intraperitoneal (ip) administration of glucose, insulin or the” for “Mice received”, “mice. Serum insulin levels were quantified by radioimmunoassay (RIA rat insulin kit, Millipore) using blood sampled from the tail vein on the first day of the study or jugular arteries the day of the sacrifice.” for “mice.”
The progressive development of type 2 diabetes as observed in db/db mice is associated with increased body weight, insulin resistance, hyperglycemia and impaired glucose tolerance.

[11] = tested on: human pancreatic islets; assay: Glucose-stimulated insulin secretion (stimulation index) of human islets exposed to cytokines; assay type: cell-based; details: Tpl2 inhibitor 3 μM, cytokine mix 72 h, stimulation index 20 mM/2.8 mM glucose
Method: Human islets were treated in RPMI medium containing 0.2% human albumin with or without Tpl2 inhibitor (3 μM) and/or Exendin-4 (20 nM) during 2 h and then stimulated or not with Tpl2 inhibitor (3 μM), Exendin-4 (20 nM) and/or a cytokine mixture (IL-1β (1000 U/ml), TNF-α (1000 U/ml) and IFN-γ (1000 U/ml) for 72 h, and then submitted to a glucose-response test in KRB buffer. The stimulation index is defined as the ratio of stimulated (20 mM glucose) to basal (2.8 mM glucose) insulin secretion. Each column represents the mean±SEM of 5 replicates (each replicate corresponds to islets from one human donor). *P<0.05, **P<0.01, and ***P<0.001 vs cytokine effect in control cells.
INS-1E cells, mouse (5-10 islets per condition) or human islets (500-2000 IEQ per condition) were preincubated at 37° C. during 2 h with or without Tpl2 inhibitor (3 μM) and Exendin-4 (20 nM), and then incubated for different times (0, 8, 16, 24, 36, 48 or 72 h) with or without Tpl2-inhibitor (3 μM), IL-1β alone (10000 U/ml, 20 μg/ml), a cytokine mix (IL-1β (100 U/ml, 0.2 ng/ml), TNF-α (500 U/ml, 50 ng/ml), and IFN-γ (100 U/ml, 30 ng/ml) for INS-1E cells and mouse islets; and IL-1β (1000 U/ml, 2 ng/ml), TNF-α (1000 U/ml, 28 ng/ml) and IFN-γ (1000 U/ml, 833 ng/ml) for human islets), and/or Exendin-4 (20 nM). […]

[12] = tested on: ERK1/2; assay: ERK1/2 phosphorylation in INS-1E β-cells (Western blotting); assay type: cell-based, rat; details: INS-1E cells, Tpl2 inhibitor 3 μM
Method: as §1, §3, §4

[13] = tested on: MEK, MK2, Src, protein kinase C, and EGF receptor; details: cited from earlier work
[14] = INS-1E cells, Tpl2 inhibitor 3 μM, IL-1β 20 ng/ml 48 h
[15] = INS-1E cells, Tpl2 inhibitor 3 μM, cytokine mix 24 h

N#Cc1cnc2cnc(NCc3cccnc3)cc2c1Nc1ccc(F)c(Cl)c1 [Tpl2 inhibitor, 4-(3-Chloro-4-fluorophenylamino)-6-(pyridine-3-yl-methylamino)-3-cyano-[1,7]napthyridine]
decrease of caspase-3/7 activity induced by the mixture of cytokines [1]: ~50% | effect on IL-1β-induced p38 phosphorylation ([2]; 3 μM): no effect | effect on IL-1β-induced p38 phosphorylation ([2]; 10 μM (data not shown)): no effect | decrease in cleaved PARP level induced by IL-1β [3, 14]: ~30% | decrease in cleaved caspase-3 level induced by IL-1β [3, 14]: ~45% | decrease in cleaved PARP level induced by the mixture of cytokines [3, 15]: ~25% | decrease in cleaved caspase-3 level induced by the mixture of cytokines [3, 15]: ~30% | INS-1E cell apoptosis with Tpl2 inhibitor alone ([3]; long term treatment, 3 μM, no cytokine): did not increase | decrease of cleaved caspase-3 induced by macrophage conditioned medium [4]: around 55% | inhibition of phosphorylation/activation of ERK1/2 induced by the cytokine mixture [5]: significantly efficient at inhibiting | inhibition of cytokine-stimulated p90RSK phosphorylation [6]: efficient at inhibiting | effect on IL-1β-induced p46/p54 JNK phosphorylation ([7]; 3 μM): no effect | effect on IL-1β-induced p46/p54 JNK phosphorylation ([7]; 10 μM (data not shown)): no effect | inhibition of cytokine-stimulated ERK1/2 phosphorylation [8]: efficient at inhibiting | inhibition of IL-1β-induced p90RSK phosphorylation ([9]; IL-1β 20 ng/ml 20 min, same extent as ERK1/2 (60%)): inhibited to the same extent | inhibition of cytokine-induced p90RSK phosphorylation ([9]; cytokine mix 20 min, same extent as ERK1/2 (50-60%)): inhibited to the same extent | body weights vs vehicle-treated db/db mice ([10]; 2.5 mg/kg daily ip, 2 weeks): not different | tolerance to glucose challenges ([10]; 2.5 mg/kg daily ip, after 7 days): significantly improved | insulin sensitivity (insulin tolerance test) ([10]; 2.5 mg/kg daily ip, after 14 days): significant improvement | serum insulin level at fast ([10]; 2.5 mg/kg daily ip, day 14, vehicle 11.3±1.2): 4.3 ± 0.4 ng/mL | blood glucose concentration at fast ([10]; 2.5 mg/kg daily ip, day 14, vehicle 258.6±40.7): 144.0 ± 15.5 mg/dL | toxicity ([10]; daily ip 2.5 mg/kg, 2 weeks): not toxic | prevention of cytokine-induced insulin secretion failure [11]: ~50% | suppression of IL-1β-induced ERK1/2 phosphorylation ([12]; 2 h, IL-1β 20 ng/ml 20 min): 60% | suppression of cytokine-induced ERK1/2 phosphorylation ([12]; cytokine mix IL-1β+TNF-α+IFN-γ 20 min): 50-60% | inhibition or activation of other protein kinases ([13]; concentration <5 μM that prevents activation of the ERK1/2 cascade): No other protein kinase has been found to be inhibited or activated | selectivity over other related kinases (MEK, MK2, Src, protein kinase C, EGF receptor) ([13]; concentrations below 5 μM): significant selectivity
